From patent publication US20250084061A1, “SULFONYL FUNCTIONAL COMPOUND, METHODS AND USES THEREOF” (Hubei Biopesticide Engineering Research Centre, priority 2023, published 2025)
Like-named read-outs stand apart in the source and are kept apart here.

Legend:
Heliothis armigera = experiment: Insecticidal activity, artificial feed surface coating method; assay type: in vivo; settings: Helicoverpa armigera, read-out: Insecticidal activity (mortality rate grade) Heliothis armigera
Summary of the method: (§1)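 Artificial diet in 24-well plates, surface-coated with test solution at 500, 250 and 125 mg/L. Each concentration was tested in two replicates (Rep1, Rep2).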

Plutella xylostella = experiment: as above; assay type: in vivo; settings: Plutella xylostella, read-out: Insecticidal activity (mortality rate grade) Plutella xylostella
Summary of the method: as §1

Aphiscraccivora = experiment: Insecticidal activity, dipping method; assay type: in vivo
Summary of the method: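 Aphids tested by dipping in ethanol-dissolved compound diluted to 500, 250 or 125 mg/L with 0.1 mL/L Tween-80, two replicates plus blank control. Mortality scored on a 0/3/5/7/9 scale for 0–30, 30–50, 50–70, 70–90 and 90–100%.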

[1] = test system: Verticillium dahliae.kieb.; experiment: Bactericidal (fungicidal) activity by microdilution; assay type: cell-based
Fusarium culmorum = experiment: as above; assay type: cell-based
[2] = test system: Fusarium oxysporum f. sp. Niveum; experiment: as above; assay type: cell-based
Thanatephorus cucumeris = experiment: as above; assay type: cell-based
Septoria nodorum Berk. = experiment: as above; assay type: cell-based
Botrytis cinerea = experiment: as above; assay type: cell-based
Leptosphaeria biglobosa = experiment: as above; assay type: cell-based
Alternaria kikuchiana = experiment: as above; assay type: cell-based
[3] = test system: Corynespora leaf spot of tomato; experiment: as above; assay type: cell-based
Rhizoctonia solani = experiment: as above; assay type: cell-based
[4] = test system: Colletotrichum gloeobosporioids; experiment: as above; assay type: cell-based
Pythium aphanidermatum = experiment: as above; assay type: cell-based
Magnaporthe oryzae = assay type: cell-based

## COC(=O)Nc1nc2ccccc2n1CCCCS(=O)(=O)O [III-3]
Heliothis armigera; 125 mg/L test solution
  mortality at 125 µg/mL: 0 to 30%
Heliothis armigera; 250 mg/L test solution
  mortality at 250 µg/mL: 0 to 30%
Heliothis armigera; 500 mg/L test solution
  mortality at 500 µg/mL: 0 to 30%
Plutella xylostella; 125 mg/L test solution
  mortality at 125 µg/mL: 0 to 30%
Plutella xylostella; 250 mg/L test solution
  mortality at 250 µg/mL: 0 to 30%
Plutella xylostella; 500 mg/L test solution
  mortality at 500 µg/mL: 0 to 30%
Aphiscraccivora; 125 mg/L test solution
  Insecticidal activity (mortality rate grade) Aphiscraccivora: 0 (mortality rate of 0˜30%)
Aphiscraccivora; 250 mg/L test solution
  Insecticidal activity (mortality rate grade) Aphiscraccivora: 0 (mortality rate of 0˜30%)
Aphiscraccivora; 500 mg/L test solution
  Insecticidal activity (mortality rate grade) Aphiscraccivora: 0 (mortality rate of 0˜30%)
[1]; 12.5 mg/L
  Fungicidal activity (antibacterial rate grade) Verticillium dahliae. kieb.: 9 (The antibacterial rate of 90˜100% could be set as 9 if the target has totally no growth)
[1]; 25 mg/L
  Fungicidal activity (antibacterial rate grade) Verticillium dahliae. kieb.: 9 (The antibacterial rate of 90˜100% could be set as 9 if the target has totally no growth)
[1]; 50 mg/L
  Fungicidal activity (antibacterial rate grade) Verticillium dahliae. kieb.: 9 (The antibacterial rate of 90˜100% could be set as 9 if the target has totally no growth)
[1]; 100 mg/L
  Fungicidal activity (antibacterial rate grade) Verticillium dahliae. kieb.: 9 (The antibacterial rate of 90˜100% could be set as 9 if the target has totally no growth)
Fusarium culmorum; 12.5 mg/L
  Fungicidal activity (antibacterial rate grade) Fusarium culmorum: 7 (The antibacterial rate of 70˜90% could be set as 7 if the target has small amounts of growth)
Fusarium culmorum; 25 mg/L
  Fungicidal activity (antibacterial rate grade) Fusarium culmorum: 9 (The antibacterial rate of 90˜100% could be set as 9 if the target has totally no growth)
Fusarium culmorum; 50 mg/L
  Fungicidal activity (antibacterial rate grade) Fusarium culmorum: 9 (The antibacterial rate of 90˜100% could be set as 9 if the target has totally no growth)
Fusarium culmorum; 100 mg/L
  Fungicidal activity (antibacterial rate grade) Fusarium culmorum: 9 (The antibacterial rate of 90˜100% could be set as 9 if the target has totally no growth)
[2]; 12.5 mg/L
  Fungicidal activity (antibacterial rate grade) Fusarium oxysporum f. sp. Niveum: 9 (The antibacterial rate of 90˜100% could be set as 9 if the target has totally no growth)
[2]; 25 mg/L
  Fungicidal activity (antibacterial rate grade) Fusarium oxysporum f. sp. Niveum: 9 (The antibacterial rate of 90˜100% could be set as 9 if the target has totally no growth)
[2]; 50 mg/L
  Fungicidal activity (antibacterial rate grade) Fusarium oxysporum f. sp. Niveum: 9 (The antibacterial rate of 90˜100% could be set as 9 if the target has totally no growth)
[2]; 100 mg/L
  Fungicidal activity (antibacterial rate grade) Fusarium oxysporum f. sp. Niveum: 9 (The antibacterial rate of 90˜100% could be set as 9 if the target has totally no growth)
Thanatephorus cucumeris; 12.5 mg/L
  Fungicidal activity (antibacterial rate grade) Thanatephorus cucumeris: 9 (The antibacterial rate of 90˜100% could be set as 9 if the target has totally no growth)
Thanatephorus cucumeris; 25 mg/L
  Fungicidal activity (antibacterial rate grade) Thanatephorus cucumeris: 9 (The antibacterial rate of 90˜100% could be set as 9 if the target has totally no growth)
Thanatephorus cucumeris; 50 mg/L
  Fungicidal activity (antibacterial rate grade) Thanatephorus cucumeris: 9 (The antibacterial rate of 90˜100% could be set as 9 if the target has totally no growth)
Thanatephorus cucumeris; 100 mg/L
  Fungicidal activity (antibacterial rate grade) Thanatephorus cucumeris: 9 (The antibacterial rate of 90˜100% could be set as 9 if the target has totally no growth)
Septoria nodorum Berk.; 12.5 mg/L
  Fungicidal activity (antibacterial rate grade) Septoria nodorum Berk.: 9 (The antibacterial rate of 90˜100% could be set as 9 if the target has totally no growth)
Septoria nodorum Berk.; 25 mg/L
  Fungicidal activity (antibacterial rate grade) Septoria nodorum Berk.: 9 (The antibacterial rate of 90˜100% could be set as 9 if the target has totally no growth)
Septoria nodorum Berk.; 50 mg/L
  Fungicidal activity (antibacterial rate grade) Septoria nodorum Berk.: 9 (The antibacterial rate of 90˜100% could be set as 9 if the target has totally no growth)
Septoria nodorum Berk.; 100 mg/L
  Fungicidal activity (antibacterial rate grade) Septoria nodorum Berk.: 9 (The antibacterial rate of 90˜100% could be set as 9 if the target has totally no growth)
Botrytis cinerea; 12.5 mg/L
  Fungicidal activity (antibacterial rate grade) Botrytis cinerea: 3 (The antibacterial rate of 0˜30% could be set as 3 if the growth of the target is normal and consistent with that of the blank control)
Botrytis cinerea; 25 mg/L
  Fungicidal activity (antibacterial rate grade) Botrytis cinerea: 3 (The antibacterial rate of 0˜30% could be set as 3 if the growth of the target is normal and consistent with that of the blank control)
Botrytis cinerea; 50 mg/L
  Fungicidal activity (antibacterial rate grade) Botrytis cinerea: 3 (The antibacterial rate of 0˜30% could be set as 3 if the growth of the target is normal and consistent with that of the blank control)
Botrytis cinerea; 100 mg/L
  Fungicidal activity (antibacterial rate grade) Botrytis cinerea: 3 (The antibacterial rate of 0˜30% could be set as 3 if the growth of the target is normal and consistent with that of the blank control)
Leptosphaeria biglobosa; 12.5 mg/L
  Fungicidal activity (antibacterial rate grade) Leptosphaeria biglobosa: 9 (The antibacterial rate of 90˜100% could be set as 9 if the target has totally no growth)
Leptosphaeria biglobosa; 25 mg/L
  Fungicidal activity (antibacterial rate grade) Leptosphaeria biglobosa: 9 (The antibacterial rate of 90˜100% could be set as 9 if the target has totally no growth)
Leptosphaeria biglobosa; 50 mg/L
  Fungicidal activity (antibacterial rate grade) Leptosphaeria biglobosa: 9 (The antibacterial rate of 90˜100% could be set as 9 if the target has totally no growth)
Leptosphaeria biglobosa; 100 mg/L
  Fungicidal activity (antibacterial rate grade) Leptosphaeria biglobosa: 9 (The antibacterial rate of 90˜100% could be set as 9 if the target has totally no growth)
Alternaria kikuchiana; 12.5 mg/L
  Fungicidal activity (antibacterial rate grade) Alternaria kikuchiana: 3 (The antibacterial rate of 0˜30% could be set as 3 if the growth of the target is normal and consistent with that of the blank control)
Alternaria kikuchiana; 25 mg/L
  Fungicidal activity (antibacterial rate grade) Alternaria kikuchiana: 3 (The antibacterial rate of 0˜30% could be set as 3 if the growth of the target is normal and consistent with that of the blank control)
Alternaria kikuchiana; 50 mg/L
  Fungicidal activity (antibacterial rate grade) Alternaria kikuchiana: 3 (The antibacterial rate of 0˜30% could be set as 3 if the growth of the target is normal and consistent with that of the blank control)
Alternaria kikuchiana; 100 mg/L
  Fungicidal activity (antibacterial rate grade) Alternaria kikuchiana: 3 (The antibacterial rate of 0˜30% could be set as 3 if the growth of the target is normal and consistent with that of the blank control)
[3]; 12.5 mg/L
  Fungicidal activity (antibacterial rate grade) Corynespora leaf spot of tomato: 3 (The antibacterial rate of 0˜30% could be set as 3 if the growth of the target is normal and consistent with that of the blank control)
[3]; 25 mg/L
  Fungicidal activity (antibacterial rate grade) Corynespora leaf spot of tomato: 3 (The antibacterial rate of 0˜30% could be set as 3 if the growth of the target is normal and consistent with that of the blank control)
[3]; 50 mg/L
  Fungicidal activity (antibacterial rate grade) Corynespora leaf spot of tomato: 7 (The antibacterial rate of 70˜90% could be set as 7 if the target has small amounts of growth)
[3]; 100 mg/L
  Fungicidal activity (antibacterial rate grade) Corynespora leaf spot of tomato: 7 (The antibacterial rate of 70˜90% could be set as 7 if the target has small amounts of growth)
Rhizoctonia solani; 12.5 mg/L
  Fungicidal activity (antibacterial rate grade) Rhizoctonia solani: 3 (The antibacterial rate of 0˜30% could be set as 3 if the growth of the target is normal and consistent with that of the blank control)
Rhizoctonia solani; 25 mg/L
  Fungicidal activity (antibacterial rate grade) Rhizoctonia solani: 3 (The antibacterial rate of 0˜30% could be set as 3 if the growth of the target is normal and consistent with that of the blank control)
Rhizoctonia solani; 50 mg/L
  Fungicidal activity (antibacterial rate grade) Rhizoctonia solani: 3 (The antibacterial rate of 0˜30% could be set as 3 if the growth of the target is normal and consistent with that of the blank control)
Rhizoctonia solani; 100 mg/L
  Fungicidal activity (antibacterial rate grade) Rhizoctonia solani: 3 (The antibacterial rate of 0˜30% could be set as 3 if the growth of the target is normal and consistent with that of the blank control)
[4]; 12.5 mg/L
  Fungicidal activity (antibacterial rate grade) Colletotrichum gloeobosporioids: 9 (The antibacterial rate of 90˜100% could be set as 9 if the target has totally no growth)
[4]; 25 mg/L
  Fungicidal activity (antibacterial rate grade) Colletotrichum gloeobosporioids: 9 (The antibacterial rate of 90˜100% could be set as 9 if the target has totally no growth)
[4]; 50 mg/L
  Fungicidal activity (antibacterial rate grade) Colletotrichum gloeobosporioids: 9 (The antibacterial rate of 90˜100% could be set as 9 if the target has totally no growth)
[4]; 100 mg/L
  Fungicidal activity (antibacterial rate grade) Colletotrichum gloeobosporioids: 9 (The antibacterial rate of 90˜100% could be set as 9 if the target has totally no growth)
Pythium aphanidermatum; 12.5 mg/L
  Fungicidal activity (antibacterial rate grade) Pythium aphanidematum: 3 (The antibacterial rate of 0˜30% could be set as 3 if the growth of the target is normal and consistent with that of the blank control)
Pythium aphanidermatum; 25 mg/L
  Fungicidal activity (antibacterial rate grade) Pythium aphanidematum: 3 (The antibacterial rate of 0˜30% could be set as 3 if the growth of the target is normal and consistent with that of the blank control)
Pythium aphanidermatum; 50 mg/L
  Fungicidal activity (antibacterial rate grade) Pythium aphanidematum: 3 (The antibacterial rate of 0˜30% could be set as 3 if the growth of the target is normal and consistent with that of the blank control)
Pythium aphanidermatum; 100 mg/L
  Fungicidal activity (antibacterial rate grade) Pythium aphanidematum: 3 (The antibacterial rate of 0˜30% could be set as 3 if the growth of the target is normal and consistent with that of the blank control)
Magnaporthe oryzae; 12.5 mg/L
  Fungicidal activity (antibacterial rate grade) Magnaporthe oryzae: 9 (The antibacterial rate of 90˜100% could be set as 9 if the target has totally no growth)
Magnaporthe oryzae; 25 mg/L
  Fungicidal activity (antibacterial rate grade) Magnaporthe oryzae: 9 (The antibacterial rate of 90˜100% could be set as 9 if the target has totally no growth)
Magnaporthe oryzae; 50 mg/L
  Fungicidal activity (antibacterial rate grade) Magnaporthe oryzae: 9 (The antibacterial rate of 90˜100% could be set as 9 if the target has totally no growth)
Magnaporthe oryzae; 100 mg/L
  Fungicidal activity (antibacterial rate grade) Magnaporthe oryzae: 9 (The antibacterial rate of 90˜100% could be set as 9 if the target has totally no growth)
